Patent US7632814B2, “HYD1 peptides as anti-cancer agents” (University of South Florida, priority 2006, dated 2009)
Where no end group is shown, it is not given here. [ ]: non-standard residue; d: D form.

Key:
Format in all cases: cell-based
[1] = test system: prostate tumor cell; assay: Random haptotaxis (cell migration) on laminin 322 (laminin 5); details: scrambled peptide HYDS indicates 100% cell migration
Source text: Defining the minimal region of HYD1 necessary to potentiate drug-induced apoptosis in suspension and adherent cultures is of interest. Below is a study to determine the minimal HYD1 sequence required to block prostate tumor cell migration. Similar studies as those outlined below and using the same peptide sequences will be used to determine the minimal amino acid sequence required for potentiation of drug induced apoptosis.
This response to the peptide is independent of disrupting adhesion to laminin 322 (laminin 5) since the cells were grown on a ligand before treatment with the peptide. […] All other alanine-substitution mutants resulted cell migration, i.e., a loss of peptide activity.
Using the negative control scrambled peptide, HYDS (SEQ ID NO:44), to indicate 100% cell migration, several truncated peptides including, ikmviswkg (SEQ ID NO:22), kmviswkg (SEQ ID NO:39), and kikmviswk (SEQ ID NO:37) were effective at blocking cell migration by approximately 50%.

[2] = test system: 8226 cells; assay: Detection of apoptosis, annexin V staining and FACS, suspension culture; details: 24 hours, annexin V
Method: (§1) FIG. 17 is a graph showing that HYD1 induces apoptosis as a single agent in 8226 and H929 cells cultured in suspension. 8226 and H929 cells were either treated with varying concentrations of HYD1 or vehicle control (equal volume sterile double distilled water) for 24 hours and apoptotic cells were detected by FACS analysis of annexin V positive cells. HYD1 specific apoptosis equals cell death due to peptide minus any apoptosis detected in control cells.
(§2) Detection of Apoptosis. A flow cytometric assay measuring Annexin V/PI staining was used to measure apoptotic cells following 24 hours of peptide exposure as previously described (Damiano J S et al. Blood, 1999; 93:1658-1667). The assay was performed in triplicate and 3 independent experiments were performed. Caspase 3 and 8 activity was measured at 6 and 24 hrs post peptide treatment per manufactures' instructions (BD Biosciences, San Jose, Calif.). The caspase assays were performed in triplicate and repeated twice.
(§3) Myeloma cells were plated at a density of 400,000 cells per ml in a 24 well plate. Cells were treated with the indicated dose of the peptide for 24 hours. Following 24 hrs of peptide exposure, apoptotic cells were detected using Annexin V staining and FACS analysis. Ten thousand events were analyzed by flow cytometry (Becton Dickinson, San Jose, Calif.). Experiments were performed in triplicate and repeated twice. Shown is a representative figure.

[3] = test system: ERK; assay: Activation of ERK signaling; details: for activation of ERK: 10 minutes post-treatment
Method: HYD1, when introduced as a soluble ligand, completely blocks random hapotaxis on laminin 322 and enhanced cellular signals are coupled with the loss of cell motility. […] Using this endpoint as an indicator of HYD1 bioactivity, the truncated and alanine-substituted variants of HYD1 were tested for their ability to activate ERK. Activation of ERK at 10 minutes post-treatment was conserved with alanine-substitution only at the N-terminal lysine and C-terminal glycine (FIG. 16A-1). […] Taken together (FIG. 16C-2), the results (FIGS. 16A-1, 16A-2, 16B, 16C-1) indicate that activation of ERK signaling required ikmviswxx (SEQ ID NO:48).

[4] = test system: MM1.S cells
Source text: FIGS. 4A-4E are a series of graphs showing that the BMS model protects myeloma MM1.S cells from melphalan (FIG. 4A), mitoxantrone (FIG. 4B), and dexamethasone (FIGS. 4C-4E) induced cell death. SF+A model confers the highest levels of resistance to cell death induced by either mitoxantrone or melphalan.
FIGS. 10A-10E are a series of graphs showing that the BMS model protects MM1.S cells from melphalan (FIG. 10A), mitoxantrone (FIG. 10B), dexamethasone (FIGS. 10C and 10D), and velcade (FIG. 10E) induced cell death.
The CAM-DR phenotype is tested by removing unadhered cells before the addition of drug. […] For this reason, the inventors chose to test for the reversal of drug resistance in adherent cells by using a bone marrow stroma (BMS) model (HS-5 cell line). In the BMS model of drug resistance, cell-cell adhesion is mediated by multiple adhesion moieties and thus the addition of a β1 blocking antibody is not sufficient to block tumor cell adhesion to the BMS cell line. The BMS model system is described in FIGS. 3A-D. These models have facilitated the availability of four discrete hematopoietic tumor populations. The first tumor population (FIG. 3A) is maintained in a traditional suspension culture in RPMI media containing 10% FBS (RM). Conditioned media is prepared by adding fresh RPMI media containing 10% FBS to HS-5 cells which are 75% confluent. After three hours, the media is then collected, centrifuged and stored at −70 for up to one month. This tumor cell culture condition is referred to as CM (FIG. 3B). The third tumor cell population consists of placing HS-5 cells in the bottom chamber and tumor cell in a top chamber that is separated by a membrane allowing for diffusion of soluble factors (see FIG. 3C). This condition is distinct from CM because it considers dynamic soluble interactions between the tumor cell and BMS cells (see FIG. 3D). […] Regardless of the cytotoxic agent used, the levels of drug resistance are greatest for myeloma cells which are adherent to the BMS. […]

[5] = test system: H929 cells; assay: Detection of apoptosis, annexin V staining and FACS, suspension culture; details: H929 cells, 200 μM ZVAD-FMK 30 minutes prior, apoptosis at 24 hours, annexin/PI
Method: as §1
200 μM ZVAD-FMK was added to H929 cells for 30 minutes prior to the addition of either 75 μg/ml HYD1S or 15 μM Melphalan. Apoptosis was measured 24 hours after drug treatment by annexin/PI staining and apoptotic cells were detected by FACS analysis. Three independent experiments were performed and shown is a representative experiment.
as §2, with “A flow cytometric assay measuring Annexin V/PI staining was used to measure apoptotic cells following 24 hours of peptide exposure as previously described (Damiano J S et al.” left out
as §3

[6] = test system: primary myeloma patient specimens; assay: Melphalan-induced cell death in primary myeloma patient specimens, FN-adherent vs suspension
Source text: It has been reported that β1-integrin mediated adhesion of 8226 cells and K562 cells to FN blocked cell death induced by the alkylating agent melphalan (Damiano J S, et al. Blood. 1999; 93:1658-1667; Hazlehurst L A, et al. Cancer Res. 2003; 63:7900-7906). In order to determine whether the CAM-DR phenotype is a potential mechanism of clinical de novo drug resistance, melphalan-induced cell death was recently measured in primary myeloma patient specimens (See FIG. 2). Plasma cells were identified by either positive Kappa or Lambda staining, and apoptotic myeloma cells were identified by the Tunnel assay. 9 out of 10 patient specimens were protected from melphalan induced cell death when adherent to FN compared to suspension cultures.

ikmviswkg (IKMVISWKG; HYD1 fragment) was tested, and the blocking cell migration [1] was “approximately 50%”.
“kikmviswk ([dK][dI][dK][dM][dV][dI][dS][dW][dK]) [HYD1-g, C-terminus glycine deleted]” was tested, and the blocking cell migration [1] was “approximately 50%”, the “potency in inducing 8226 cell death compared to HYD1” value [2] was “increased potency” and the “potency in inducing 8226 cell death compared to HYD1” value ([2]; listed as kikmviswk) was “greater potency”.
In the case of kikmv (KIKMV; HYD1 fragment), the “ERK signal of N-terminal region compared with C-terminal region” value [3] is reported as “stronger signal than iswkg” and the “activation of ERK” value [3] is reported as “partial activation of ERK”.
For `O=C1c2c(O)ccc(O)c2C(=O)c2c(NCCNCCO)ccc(NCCNCCO)c21` [mitoxantrone], the “resistance to drug induced cell death conferred by HS-5 stromal layer in the BMS model” value (“resistance” below) [4] was “sufficient to confer resistance”.
For iswkg (ISWKG; HYD1 fragment), the “activation of ERK” value [3] was “partial activation of ERK”.
In the case of `CC(C)C[C@H](NC(=O)[C@H](Cc1ccccc1)NC(=O)c1cnccn1)B(O)O` [velcade], the “resistance” value [4] is reported as “sufficient to confer resistance”.
For `N[C@@H](Cc1ccc(N(CCCl)CCCl)cc1)C(=O)O` [melphalan], the “resistance” value [4] was “sufficient to confer resistance”, the “protection from induced cell death by pan caspase inhibitor ZVAD-FMK” value [5] was “blocked the majority” and the “mean percent apoptosis of plasma cells adhered to FN” value ([6]; 200 μM melphalan, bone marrow aspirates, adhered to FN prior to treatment) was 27.7%. The “mean percent apoptosis of plasma cells in suspension cultures” value ([6]; 200 μM melphalan, suspension cultures) was 55.6% and the “patient specimens protected from melphalan induced cell death when adherent to FN” value ([6]; compared to suspension cultures, ten patients) was 9 out of 10.
For kmviswkg (KMVISWKG; HYD1 fragment), the blocking cell migration [1] was “approximately 50%”.
